According to the supplement of paper PMC10307832:

Key:
Assay in all cases: relative viability (nuclei count vs DMSO), 5 days (fraction); higher = more cells survive
Ibrutinib + Phenformin = compound: C=CC(=O)N1CCC[C@@H](n2nc(-c3ccc(Oc4ccccc4)cc3)c3c(N)ncnc32)C1 [Ibrutinib] + N=C(N)NC(=N)NCCc1ccccc1 [Phenformin] (partner 250 µM)
Summary of the method: (§1)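 Lung cancer cell lines were pin-tool dosed in 1536-well plates on the day after seeding, with either a lone drug or a fixed anchor-drug dose plus five library-drug doses (not always all listed) in √10 steps. Nuclei were counted on 4× images after 5 days. Relative viability is the ratio of treated-well to vehicle-well nuclei counts, with each value a median of duplicate plates.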

Ibrutinib + AZD7762 = compound: C=CC(=O)N1CCC[C@@H](n2nc(-c3ccc(Oc4ccccc4)cc3)c3c(N)ncnc32)C1 [Ibrutinib] + NC(=O)Nc1cc(-c2cccc(F)c2)sc1C(=O)N[C@H]1CCCNC1 [AZD7762] (partner 0.2 µM)
Summary of the method: as §1

PAC-1 + Bortezomib = compound: C=CCc1cccc(/C=N/NC(=O)CN2CCN(Cc3ccccc3)CC2)c1O [PAC-1] + CC(C)C[C@H](NC(=O)[C@H](Cc1ccccc1)NC(=O)c1cnccn1)B(O)O [Bortezomib] (partner 0.002 µM)
Summary of the method: as §1

Ibrutinib + Navitoclax = compound: C=CC(=O)N1CCC[C@@H](n2nc(-c3ccc(Oc4ccccc4)cc3)c3c(N)ncnc32)C1 [Ibrutinib] + CC1(C)CCC(c2ccc(Cl)cc2)=C(CN2CCN(c3ccc(C(=O)NS(=O)(=O)c4ccc(N[C@H](CCN5CCOCC5)CSc5ccccc5)c(S(=O)(=O)C(F)(F)F)c4)cc3)CC2)C1 [Navitoclax] (partner 0.5 µM)
Summary of the method: as §1

Row | Cell Line | relative viability (Ibrutinib + Phenformin; first compound 0.005 µM) | relative viability (Ibrutinib + Phenformin; first compound 0.01581 µM) | relative viability (Ibrutinib + Phenformin; first compound 0.05 µM) | relative viability (Ibrutinib + Phenformin; first compound 0.1581 µM) | relative viability (Ibrutinib + Phenformin; first compound 0.5 µM) | relative viability (Ibrutinib + AZD7762; first compound 0.005 µM) | relative viability (Ibrutinib + AZD7762; first compound 0.01581 µM) | relative viability (Ibrutinib + AZD7762; first compound 0.05 µM) | relative viability (Ibrutinib + AZD7762; first compound 0.1581 µM) | relative viability (Ibrutinib + AZD7762; first compound 0.5 µM) | relative viability (PAC-1 + Bortezomib; first compound 0.02 µM) | relative viability (PAC-1 + Bortezomib; first compound 0.06325 µM) | relative viability (PAC-1 + Bortezomib; first compound 0.2 µM) | relative viability (PAC-1 + Bortezomib; first compound 2 µM) | relative viability (Ibrutinib + Navitoclax; first compound 0.005 µM) | relative viability (Ibrutinib + Navitoclax; first compound 0.01581 µM) | relative viability (Ibrutinib + Navitoclax; first compound 0.05 µM) | relative viability (Ibrutinib + Navitoclax; first compound 0.1581 µM) | relative viability (Ibrutinib + Navitoclax; first compound 0.5 µM)
1 | NCI-H1651 | 0.34 | 0.262 | 0.295 | 0.308 | 0.252 | 0.306 | 0.459 | 0.452 | 0.464 | 0.48 | 0.905 | 0.929 | 0.88 | 0.968 | 0.853 | 1.03 | 1.12 | 1 | 0.837
2 | NCI-H1666 | 0.597 | 0.59 | 0.547 | 0.561 | 0.571 | 0.803 | 0.777 | 0.843 | 0.892 | 0.783 | 0.849 | 0.809 | 0.828 | 0.912 | 0.762 | 0.806 | 0.521 | 1.06 | 0.451
3 | NCI-H1734 | 0.338 | 0.349 | 0.419 | 0.355 | 0.381 | 0.481 | 0.518 | 0.449 | 0.557 | 0.526 | 0.904 | 0.995 | 0.877 | 0.955 | 0.839 | 0.821 | 0.794 | 0.869 | 0.726
4 | NCI-H1755 | 0.667 | 0.624 | 0.65 | 0.627 | 0.665 | 0.45 | 0.455 | 0.454 | 0.409 | 0.453 | 0.99 | 0.961 | 0.938 | 0.907 | 0.988 | 1.02 | – | 1.09 | 0.952
5 | NCI-H1792 | – | 0.449 | – | 0.206 | 0.171 | – | 0.693 | 0.6 | 0.636 | 0.515 | 0.982 | 1.01 | 0.947 | 0.896 | 0.669 | 0.694 | 0.69 | 0.474 | 0.599
6 | NCI-H1915 | 0.401 | 0.351 | 0.367 | 0.421 | 0.373 | 0.76 | 0.638 | 0.625 | 0.741 | 0.667 | 0.995 | 0.964 | 0.907 | 1.02 | – | 0.767 | 0.799 | 0.793 | 0.795
7 | NCI-H1975 | 0.452 | 0.372 | 0.379 | 0.416 | 0.215 | 0.647 | 0.556 | 0.517 | 0.522 | 0.342 | 0.35 | 0.396 | 0.378 | 0.386 | 1.04 | 1.14 | 1.08 | 1.09 | 0.637
8 | NCI-H1993 | 0.487 | 0.575 | 0.534 | 0.509 | 0.624 | 0.39 | 0.732 | 0.739 | 0.751 | 0.557 | 0.975 | 1.08 | 1.15 | 1.09 | 0.807 | 0.7 | 0.75 | – | 0.742
9 | NCI-H2085 | 0.584 | 0.691 | 0.616 | 0.589 | 0.495 | 0.906 | 0.926 | 0.919 | 0.926 | 0.729 | 1.09 | 1.1 | 1.14 | 1.12 | 1.1 | 1.13 | 1 | 1.13 | –
10 | NCI-H2087 | 0.494 | 0.46 | 0.493 | – | 0.427 | 1.77 | 1.19 | 1.04 | – | 1.21 | 0.739 | 0.838 | 0.702 | 0.95 | 1.05 | 0.952 | 1.12 | 1 | 0.939
11 | NCI-H2126 | 0.485 | 0.474 | 0.495 | 0.551 | 0.52 | 0.776 | 0.966 | 0.962 | 0.986 | 0.958 | 1.08 | 1.08 | 1.21 | 1.18 | – | 0.803 | 0.801 | 0.861 | 0.588
12 | NCI-H2347 | – | 0.447 | 0.332 | 0.294 | 0.239 | 0.739 | 0.733 | 0.69 | 0.665 | 0.696 | 1.07 | 0.912 | 1.08 | 0.875 | 0.898 | 0.724 | 0.846 | 0.729 | 0.717
13 | NCI-H2405 | 0.383 | 0.384 | 0.387 | 0.264 | 0.369 | 0.778 | 0.65 | – | – | 0.829 | 0.981 | 1.02 | 0.959 | 0.977 | 0.923 | 0.812 | 0.731 | – | 0.98
14 | NCI-H3122 | 0.363 | 0.359 | 0.414 | 0.358 | 0.406 | 1.16 | 0.946 | 1.03 | 0.885 | 0.992 | 1.03 | 1.05 | 1 | 0.977 | 1.06 | 0.971 | 1.06 | 0.956 | 1.06
15 | PC-3 [JPC-3] | 0.47 | 0.452 | 0.467 | 0.473 | 0.391 | 0.631 | 0.588 | 0.478 | – | 0.445 | 0.83 | 0.789 | 0.774 | 0.877 | 0.82 | 0.805 | 0.598 | 0.824 | 0.488
16 | PC-14 | 0.589 | 0.512 | 0.429 | 0.357 | 0.174 | 0.379 | 0.349 | 0.314 | 0.224 | 0.23 | 0.937 | 0.953 | 0.754 | 0.927 | 1.04 | 1.05 | 1.12 | 1.05 | 0.922
17 | RERF-LC-KJ | 0.394 | 0.389 | 0.379 | 0.407 | 0.356 | 0.464 | 0.943 | 0.845 | 0.896 | 0.714 | 1.15 | 1.16 | 1.08 | 1.17 | 0.872 | – | 0.699 | 0.745 | 0.677
